These results are taken from US10010538B2, “Use of anthelmintic agents against Dirofilaria immitis” (Intervet Inc., priority 2014, dated 2018).

In one assay the test system is D. immitis microfilariae. The experiment in a line: Activity against D. immitis microfilariae (viability after 3 days incubation). It counts as cell-based. The following applies: Dirofilaria immitis, in Canis lupus familiaris, 72 h, read-out: Microfilaricidal activity, half maximal effective concentration (EC50).
The next assay concerns L4 larvae of D. immitis. The assay can be described thus: microbe, parasite or virus in culture. It counts as cell-based. The following applies: Dirofilaria immitis, 72 h, read-out: MIC100, lowest dose that results in complete loss of motility.

With `O=C(CO[C@H]1CC[C@H](Nc2ccc([N+](=O)[O-])c(C(F)(F)F)c2)CC1)N1CCC(Oc2ccc(OC(F)(F)F)cc2)CC1` [Example 266], the EC50 with D. immitis microfilariae is less than 5 µM. The MIC in the assay on L4 larvae of D. immitis is less than 10 µM.

On to `O=C(CO[C@H]1CC[C@H](Nc2ccc([N+](=O)[O-])c(C(F)(F)F)c2)CC1)N1CCC(Nc2ccc(C(F)(F)F)cc2)CC1` [Example 267], for which the EC50 in the assay with D. immitis microfilariae was less than 10 µM. In the assay on L4 larvae of D. immitis, the MIC is less than 10 µM.
